This is an account of results in patent US6235751A, “Quinolizine carboxylic acid derivatives” (Korean Research Institute of Chemical Technology, priority 1997, dated 2001).

Test [1] concerns Streptococcus pyogenes A 308. Description: Antibacterial activity in vitro (MIC, two-fold agar dilution). The settings on record: read-out: Minimal Inhibitory Concentration (MIC). It is filed as cell-based. The text has this:
(§1) Test 1. Antibacterial activity in vitro
1. Streptococcus pyogenes A 308
Background: In agar dilution the substance is mixed into plates at graded concentrations.

For test [2], the system named is Streptococcus pyogenes A 77. Described as above. The format is cell-based. The settings on record: read-out: Minimal Inhibitory Concentration (MIC).
Description: as §1
2. Streptococcus pyogenes A 77

Test [3] has as its system Streptococcus faecium MD 8b. The description is as above. The format is cell-based. The settings on record: Enterococcus faecium, MD8B, read-out: Minimal Inhibitory Concentration (MIC).
Description: as §1
3. Streptococcus faecium MD 8b

The test system of test [4] is Staphylococcus aureus SG 511. Described as above. Conditions: SG511, Muller Hinton agar, 10^7 CFU/ml, 37° C., 18 hours, read-out: Minimal Inhibitory Concentration (MIC). The format is cell-based.
Description: as §1
4. Staphylococcus aureus SG 511

In the next test the test system is Escherichia coli DC 0. The test is described as above. The format is cell-based. The settings on record: read-out: Minimal Inhibitory Concentration (MIC).
Description: as §1

A further test has as its system Escherichia coli DC 2. Described as above. It is filed as cell-based. Conditions: DC2, Muller Hinton agar, 10^7 CFU/ml, 37° C., 18 hours, read-out: Minimal Inhibitory Concentration (MIC).
Description: as §1

In test [5] the test system is Pseudomonas aeruginosa 1592E. The test is described as above. It is filed as cell-based. Conditions: Muller Hinton agar, 10^7 CFU/ml, 37° C., 18 hours, read-out: Minimal Inhibitory Concentration (MIC).
Description: as §1
13. Pseudomonas aeruginosa 1592 E

The test system of test [6] is Pseudomonas aeruginosa 1771. The test is described as above. The format is cell-based. The settings on record: Muller Hinton agar, 10^7 CFU/ml, 37° C., 18 hours, read-out: Minimal Inhibitory Concentration (MIC).
Description: as §1
14. Pseudomonas aeruginosa 1771

Another test relates to Enterobacter cloacae P99. Put plainly: microbe, parasite or virus in culture. The settings on record: P99, 18 h, read-out: Minimal Inhibitory Concentration (MIC).
Description: as §1
19. Enterobacter cloacae P 99

Test [7] deals with Enterobacter cloacae 1321E. Put plainly: microbe, parasite or virus in culture. The settings on record: 18 h, read-out: Minimal Inhibitory Concentration (MIC).
Description: as §1

The subject of test [8] is calf thymus topoisomerase II. Description: Inhibition of topoisomerase II enzyme activity. The format is biochemical. Set-up: unit not given here. The settings on record: concentration to inhibit the enzyme activity of topoisomerase II (calf thymus). The text has this:
(§2) Test 2. Selectivity Index

The next test addresses gyrase of E. coli (Escherichia coli, UniProt P0AES4+P0AES6). Description: Inhibition of gyrase enzyme activity. The format is biochemical. Further details: unit not given here. The settings on record: concentration to inhibit the enzyme activity of gyrase of E. coli.
Description: as §2

For test [9], the system named is gyrase of E. coli and calf thymus topoisomerase II. The settings on record: calculated by equation 1 from IC100, Topo II and IC100, Gyrase. The protocol: as §2
Selectivity indexes of the compounds of the present invention and control compounds were measured using gyrase purified from of E. coli and calf thymus topoisomerase II obtained from Topogen. Co.
The selectivity index (S.I.) was calculated by the equation 1. [formula]
wherein, IC100, Topo II is the concentration of a compound to inhibit the enzyme activity of topoisomerase II and IC100, Gyrase is the concentration of a compound to inhibit the enzyme activity of gyrase of E. coli.

The next test deals with Escherichia coli TEM. Put plainly: microbe, parasite or virus in culture. Conditions: 18 h, read-out: Minimal Inhibitory Concentration (MIC).
Test [10] has as its system Staphylococcus aureus 285. Description: Antibacterial activity in vitro (MIC, two-fold agar dilution). Conditions: Staphylococcus aureus, 285, 18 h, read-out: Minimal Inhibitory Concentration (MIC).
For test [11], the system named is Staphylococcus aureus 503. Described as above. Conditions: Staphylococcus aureus, 503, 18 h, read-out: Minimal Inhibitory Concentration (MIC).
The next test has as its system Escherichia coli 078. The description is as above. Conditions: Escherichia coli, 078, 18 h, read-out: Minimal Inhibitory Concentration (MIC).
In another test the test system is Escherichia coli 1507E. The description is as above. The settings on record: 18 h, read-out: Minimal Inhibitory Concentration (MIC).
Test [12] concerns Pseudomonas aeruginosa 9027. The test is described as above. The settings on record: Pseudomonas aeruginosa, 9027, 18 h, read-out: Minimal Inhibitory Concentration (MIC).
The next test has as its system Salmonella typhimurium. The description is as above. Conditions: Salmonella enterica, 18 h, read-out: Minimal Inhibitory Concentration (MIC).
The next test deals with Klebsiella oxytoca 1082E. The test is described as above. The settings on record: 18 h, read-out: Minimal Inhibitory Concentration (MIC).
The test system of test [13] is Klebsiella aerogenes 1552E. The test is described as above. Conditions: 18 h, read-out: Minimal Inhibitory Concentration (MIC).
The mark [14] stands for this setting: Streptococcus pyogenes, A308, 18 h.
The mark [15] stands for this setting: Streptococcus pyogenes, A77, 18 h.

Each structure is given as a SMILES string. Values after ≈ are worked out from the molar mass of the structure shown. Like-named read-outs stand apart in the source and are kept apart here.

Chain of gyrase of E. coli (P0AES4 whole entry, one chain of several): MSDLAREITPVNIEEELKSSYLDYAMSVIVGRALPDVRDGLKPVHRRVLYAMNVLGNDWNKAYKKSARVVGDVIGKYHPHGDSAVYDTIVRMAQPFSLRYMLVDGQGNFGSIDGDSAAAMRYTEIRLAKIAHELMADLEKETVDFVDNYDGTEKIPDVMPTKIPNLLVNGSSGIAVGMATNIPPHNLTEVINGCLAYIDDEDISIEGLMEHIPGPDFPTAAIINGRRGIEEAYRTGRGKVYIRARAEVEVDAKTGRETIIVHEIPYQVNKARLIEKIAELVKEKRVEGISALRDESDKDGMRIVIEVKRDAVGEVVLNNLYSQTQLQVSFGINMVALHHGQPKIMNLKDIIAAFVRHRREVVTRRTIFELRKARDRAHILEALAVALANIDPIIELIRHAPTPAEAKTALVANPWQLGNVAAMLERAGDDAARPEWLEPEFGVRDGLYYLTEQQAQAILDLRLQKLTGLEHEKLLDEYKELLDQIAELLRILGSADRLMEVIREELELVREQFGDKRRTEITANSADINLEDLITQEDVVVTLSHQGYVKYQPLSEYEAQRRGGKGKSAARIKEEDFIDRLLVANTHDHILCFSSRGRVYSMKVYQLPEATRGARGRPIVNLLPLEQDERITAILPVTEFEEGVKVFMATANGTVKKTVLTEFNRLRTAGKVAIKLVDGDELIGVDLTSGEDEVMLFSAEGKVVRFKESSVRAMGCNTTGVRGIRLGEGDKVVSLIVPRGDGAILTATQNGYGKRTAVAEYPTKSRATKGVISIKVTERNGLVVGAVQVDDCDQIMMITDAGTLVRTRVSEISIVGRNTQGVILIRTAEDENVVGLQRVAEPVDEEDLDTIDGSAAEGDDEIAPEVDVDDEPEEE

On to `Cc1c(N2CC(CN)C(OCc3cccnc3)C2)c(F)cn2c(=O)c(C(=O)O)cc(C3CC3)c12` (stereo not shown) [Example 16, 8-{[3-(3-pyridylmethyl)oxy-4-aminomethylpyrrolidine]-1-yl}-1-cyclopropyl-7-fluoro-9-methyl-4-oxo-4H-quinolizine-3-carboxylic acid], for which the MIC was 0.098 µg/mL (≈ 0.21 µM) in test [1] (setting [14]); 0.049 µg/mL (≈ 0.105 µM) in test [2] (setting [15]); 0.049 µg/mL (≈ 0.105 µM) in test [3] (18 h); 0.013 µg/mL (≈ 0.0279 µM) in [4]; 0.098 µg/mL (≈ 0.21 µM) in the test with Escherichia coli DC 0 (Escherichia coli, DC0, 18 h); 0.013 µg/mL (≈ 0.0279 µM) in the test with Escherichia coli DC 2. In addition, the MIC in [5] is 0.195 µg/mL (≈ 0.418 µM); in test [6], 0.195 µg/mL (≈ 0.418 µM); in the test with Enterobacter cloacae P99, 0.004 µg/mL (≈ 0.00857 µM); in test [7] it was under 0.002 µg/mL; with Escherichia coli TEM it was 0.007 µg/mL (≈ 0.015 µM); in [10], 0.013 µg/mL (≈ 0.0279 µM). Moreover, the MIC in test [11] is 0.013 µg/mL (≈ 0.0279 µM); in the test with Escherichia coli 078 it was under 0.002 µg/mL; in the test on Escherichia coli 1507E it was 0.013 µg/mL (≈ 0.0279 µM); in test [12], 0.195 µg/mL (≈ 0.418 µM); with Salmonella typhimurium, 0.004 µg/mL (≈ 0.00857 µM); with Klebsiella oxytoca 1082E, under 0.002 µg/mL. Moreover, the MIC in test [13] worked out at 0.013 µg/mL (≈ 0.0279 µM). Also, the “IC100, Topo II” value in test [8] is recorded as 1,000. On gyrase of E. coli, the “IC100, Gyrase” value turned out to be 0.5. Also, the “S.I. (Selectivity Index)” value in test [9] is given as 2,000.

Take `Cc1c(N2CC3=CCCN[C@H]3C2)c(F)cn2c(=O)c(C(=O)O)cc(C3CC3)c12` [Example 1, 8-{[(R)-2,8-diazabicyclo[4.3. 0]non-5-en]-8-yl}-1-cyclopropyl-7-fluoro-9-methyl-4-oxo-4H-quinolizine-3-carboxylic acid]: the MIC in test [1] (A308, Streptococcus pyogenes A 308, Muller Hinton agar, 10^7 CFU/ml, 37° C., 18 hours) amounted to 0.049 µg/mL (≈ 0.128 µM); in test [2] (A77, Streptococcus pyogenes A 77, Muller Hinton agar, 10^7 CFU/ml, 37° C., 18 hours), 0.025 µg/mL (≈ 0.0652 µM); in test [3] (Streptococcus faecium MD 8b, Muller Hinton agar, 10^7 CFU/ml, 37° C., 18 hours), 0.025 µg/mL (≈ 0.0652 µM); in test [4], 0.007 µg/mL (≈ 0.0183 µM); with Escherichia coli DC 0 (DC0, Escherichia coli DC 0, Muller Hinton agar, 10^7 CFU/ml, 37° C., 18 hours), 0.049 µg/mL (≈ 0.128 µM); in the test with Escherichia coli DC 2 it was 0.013 µg/mL (≈ 0.0339 µM). Further, the MIC was 0.098 µg/mL (≈ 0.256 µM) in test [5]; 0.098 µg/mL (≈ 0.256 µM) in test [6]; 0.004 µg/mL (≈ 0.0104 µM) with Enterobacter cloacae P99; under 0.002 µg/mL in test [7]; 0.007 µg/mL (≈ 0.0183 µM) in the test on Escherichia coli TEM; 0.013 µg/mL (≈ 0.0339 µM) in [10]. Besides, the MIC in [11] is 0.007 µg/mL (≈ 0.0183 µM); in the test on Escherichia coli 078, under 0.002 µg/mL; with Escherichia coli 1507E, 0.007 µg/mL (≈ 0.0183 µM); in test [12], 0.195 µg/mL (≈ 0.509 µM); in the test on Salmonella typhimurium, 0.004 µg/mL (≈ 0.0104 µM); in the test on Klebsiella oxytoca 1082E, under 0.002 µg/mL. In addition, in [13], the MIC is 0.013 µg/mL (≈ 0.0339 µM). Moreover, in test [8], the “IC100, Topo II” value was 1,000. In addition, on gyrase of E. coli, the “IC100, Gyrase” value is recorded as 0.5. In test [9], the “S.I. (Selectivity Index)” value was 2,000.

Turning to `CC1CN(c2c(F)c(N)c3c(=O)c(C(=O)O)cn(C4CC4)c3c2F)CC(C)N1` (stereo not shown) [Sparfloxacin, 1-cyclopropyl-5-amino-6,8-difluoro-7-(3,5-dimethylpiperazin-1-yl)-4-oxoquinoline-3-carboxylic acid, reference compound], the MIC in test [1] (setting [14]) stood at 0.391 µg/mL (≈ 0.996 µM); in test [2] (setting [15]), 0.195 µg/mL (≈ 0.497 µM); in test [3] (18 h), 0.391 µg/mL (≈ 0.996 µM); in test [4], 0.098 µg/mL (≈ 0.25 µM); in the test on Escherichia coli DC 0 (Escherichia coli, DC0, 18 h) it was 0.195 µg/mL (≈ 0.497 µM); in the test on Escherichia coli DC 2, 0.025 µg/mL (≈ 0.0637 µM). In addition, the MIC in test [5] worked out at 0.781 µg/mL (≈ 1.99 µM); in [6] it was 0.781 µg/mL (≈ 1.99 µM); in the test with Enterobacter cloacae P99, 0.007 µg/mL (≈ 0.0178 µM); in test [7], 0.004 µg/mL (≈ 0.0102 µM); in the test with Escherichia coli TEM it was 0.013 µg/mL (≈ 0.0331 µM); in test [10], 0.049 µg/mL (≈ 0.125 µM). The MIC is 0.049 µg/mL (≈ 0.125 µM) in test [11]; 0.004 µg/mL (≈ 0.0102 µM) with Escherichia coli 078; 0.025 µg/mL (≈ 0.0637 µM) in the test on Escherichia coli 1507E; 0.781 µg/mL (≈ 1.99 µM) in [12]; 0.007 µg/mL (≈ 0.0178 µM) in the test with Salmonella typhimurium; under 0.002 µg/mL in the test with Klebsiella oxytoca 1082E. In addition, the MIC in [13] was 0.025 µg/mL (≈ 0.0637 µM). For the same molecule, the “IC100, Topo II” value in [8] worked out at 500. Besides, the “IC100, Gyrase” value on gyrase of E. coli is reported as 1.0. Moreover, in test [9], the “S.I. (Selectivity Index)” value was 500.

On to `O=C(O)c1cn(C2CC2)c2cc(N3CCNCC3)c(F)cc2c1=O` [Ciprofloxacin, 1-cyclopropyl-6-fluoro-7-(piperazin-1-yl)-4-oxoquinoline-3-carboxylic acid, reference compound], for which the MIC came to 3.12 µg/mL (≈ 9.43 µM) in [1] (setting [14]); 0.781 µg/mL (≈ 2.36 µM) in test [2] (setting [15]); 0.391 µg/mL (≈ 1.18 µM) in test [3] (18 h); 0.195 µg/mL (≈ 0.589 µM) in [4]; 0.195 µg/mL (≈ 0.589 µM) with Escherichia coli DC 0 (Escherichia coli, DC0, 18 h); 0.049 µg/mL (≈ 0.148 µM) in the test with Escherichia coli DC 2. Further, the MIC amounted to 0.195 µg/mL (≈ 0.589 µM) in test [5]; 0.195 µg/mL (≈ 0.589 µM) in test [6]; 0.007 µg/mL (≈ 0.0211 µM) in the test with Escherichia coli TEM; 0.781 µg/mL (≈ 2.36 µM) in [10]; 0.391 µg/mL (≈ 1.18 µM) in test [11]; 0.004 µg/mL (≈ 0.0121 µM) in the test with Escherichia coli 078. In addition, the MIC is 0.007 µg/mL (≈ 0.0211 µM) in the test with Escherichia coli 1507E; 0.195 µg/mL (≈ 0.589 µM) in [12]; 0.007 µg/mL (≈ 0.0211 µM) in the test on Salmonella typhimurium; under 0.002 µg/mL with Klebsiella oxytoca 1082E; 0.013 µg/mL (≈ 0.0392 µM) in [13]. Besides, the “IC100, Topo II” value in test [8] was found to be 500. The “IC100, Gyrase” value against gyrase of E. coli is reported as 0.5.
